Measurements from patent US11674967B2, “Method of identifying potential inhibitors of APO TNFα trimers” (UCB BIOPHARMA SRL, priority 2015, dated 2023).

Assays:
[1] = test system: IL-1β; assay: HEK-Blue NF-κB reporter gene counterscreen, IL-1β stimulus; assay type: cell-based; conditions: IL-1β 0.5 ng/mL
Experimental: (§1) Stimulation of HEK-293 cells by TNF-alpha leads to activation of the NF-kB pathway. The reporter cell line used to determine TNF alpha activity was purchased from Invivogen. HEK-Blue™ CD40L, is a stable transfectant expressing SEAP (secreted alkaline phosphatase) under the control of the IFN-beta minimal promoter fused to 5 NF-kB binding sites. Secretion of SEAP by these cells is stimulated in a concentration dependent manner by TNF-alpha (0.5 ng/ml), IL-1-beta (0.5 ng/ml) and an activating anti-human TNFR1 antibody (300 ng/ml).
(§2) Compounds were diluted from 10 mM DMSO stocks (final assay concentration 0.3%) to generate a 10 point 3 fold serial dilution curve (30,000 nM to 2 nM final concentration). They were mixed with stimulating ligand for 1 hour in a 384 well microtitre plate. Freshly thawed and washed cells were added to the compound/stimulus mixture and further incubated for 18 hours. SEAP activity was determined in the supernatant using the colorimetric substrate Quanti-Blue™ (Invivogen).
(§3) Percentage inhibitions for compound dilutions were calculated between a DMSO control and maximum inhibition (by excess control compound) and an IC50 calculated using xlfit (4 parameter logistic model) in Activity Base.
(§4) The specific activity of the compound of formula (15) against the TNF-alpha response was compared to that seen with the counterscreens (IL-1beta and anti-human TNFR1 antibody).

[2] = test system: TNFα-induced NF-κB activation; assay: HEK-Blue CD40L NF-κB reporter gene assay, TNFα stimulus; assay type: cell-based; conditions: TNFα 0.5 ng/mL
Experimental: as §1
as §2, with “Freshly thawed and washed cells were added to the compound/stimulus mixture and further incubated for 18 hours.” left out
as §3
C87 was preincubated with TNFα for 1 hour prior to the addition to HEK-293 cells stably transfected with SEAP under the control of NFκB. […] The assay was incubated overnight before inhibition was measured compared to 100% blocking by a control compound. […]

[3] = test system: TNF-R1; assay: HEK-Blue NF-κB reporter gene counterscreen, activating TNF-R1 antibody stimulus; assay type: cell-based, human; conditions: antibody 300 ng/mL
Experimental: as §1, §2, §3, §4

[4] = target: TNFα (Homo sapiens, UniProt P01375); assay: Surface plasmon resonance kinetics of compound binding to immobilised TNFα
Experimental: Surface plasmon resonance was used to measure the association rate, the dissociation rate and the affinity of the compounds of formulae (3) and (15) for TNFα (FIGS. 12A and B). For the purpose of this study a Biacore T100/T200 was used.
TNFα was immobilised at pH5 to a level of 5-8 KRU onto a CMS sensor in HBS-P buffer (10 mM HEPES pH 7.4, 0.15 M NaCl, 0.005% Surfactant P20, BIAcore, GE Healthcare). The TNFα was then equilibrated in HBS-P with 5% DMSO for at least 5 hours. The samples were diluted from 10 mM stocks into DMSO matched buffer and left to solubilise for at least 5 hours. The flow rate was […].
This assay was performed by adding 4 or 5 concentrations of compound starting from a highest concentration of 25 μM for compound of formula (3) and 1 μM for compound of formula (15) and then serially diluting this sample. Background subtraction binding curves were analysed using the BIAevaluation software following standard procedures. Binding, affinity and kinetic parameters were determined using Biacore software. The kinetic data were fitted using the levenberg marquardt algorithm.

TNFα, sequence (P01375 77-233 limits assumed): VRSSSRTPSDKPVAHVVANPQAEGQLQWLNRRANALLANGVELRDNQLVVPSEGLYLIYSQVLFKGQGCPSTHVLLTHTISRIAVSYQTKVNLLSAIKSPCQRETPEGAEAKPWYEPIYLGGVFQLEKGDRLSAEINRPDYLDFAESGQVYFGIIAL

Row | SMILES | inhibition of activation of NF-κB by IL-1β [1] | IC50 [2] | inhibition of activation of NF-κB by activating TNF-R1 antibody [3] | dissociation rate constant (koff) [4] | kon [4]
1 | Cc1ccc(C)c(Cn2c(C(O)c3ccncc3)nc3ccc(-c4cnn(C)c4)cc32)c1 (centres unmarked) [Compound 15] | did not inhibit | 113 nM | did not inhibit | – | –
2 | Cc1ccc(C)c(Cn2c(C(O)c3ccncc3)nc3ccccc32)c1 (centres unmarked) [Compound 3] | – | – | – | 9.46 e^−5 s^−1 | 2.668 e^3 M^−1 s^−1
